In article PMC5353688, “Both Drosophila matrix metalloproteinases have released and membrane-tethered forms but have different substrates” (Scientific Reports, 2017):

Tests used:
DmMmp2 = target: T1, DmMmp2 (Drosophila melanogaster, UniProt Q8MPP3); experiment: gelatin zymography of FLAG immunoprecipitate; type: biochemical; conditions: GM6001 25 uM in sample before electrophoresis, 10 uM in renaturing and developing buffers; gelatin substrate; complete inhibition, no constant
T1 construct: gene Mmp2; full-length cDNA, 3xFLAG inserted after S710 (before GPI-anchor signal), expressed in S2 cells, immunoprecipitated from conditioned media (released form); ~110 kDa in lysate
T1 sequence (Q8MPP3 137-738): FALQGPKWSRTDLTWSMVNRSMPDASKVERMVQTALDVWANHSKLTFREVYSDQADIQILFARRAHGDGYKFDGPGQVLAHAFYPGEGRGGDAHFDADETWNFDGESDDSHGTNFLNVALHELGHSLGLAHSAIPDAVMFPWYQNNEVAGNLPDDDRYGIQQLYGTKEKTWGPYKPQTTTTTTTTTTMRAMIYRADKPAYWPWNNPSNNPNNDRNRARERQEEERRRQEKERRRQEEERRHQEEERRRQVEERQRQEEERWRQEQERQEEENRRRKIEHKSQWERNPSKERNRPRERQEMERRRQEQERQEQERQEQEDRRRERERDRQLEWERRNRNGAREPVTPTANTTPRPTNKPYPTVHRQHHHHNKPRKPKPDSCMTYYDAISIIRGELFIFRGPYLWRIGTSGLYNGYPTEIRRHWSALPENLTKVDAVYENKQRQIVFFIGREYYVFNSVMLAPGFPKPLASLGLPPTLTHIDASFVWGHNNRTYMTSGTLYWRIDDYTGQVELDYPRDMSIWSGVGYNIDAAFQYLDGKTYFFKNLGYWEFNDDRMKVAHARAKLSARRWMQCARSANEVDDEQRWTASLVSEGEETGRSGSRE

DmMmp1 (Mmp1-PF) = target: T2, DmMmp1 (Mmp1-PF) (Drosophila melanogaster, UniProt Q8MLN6); type: biochemical; conditions: GM6001 25 uM in sample before electrophoresis, 10 uM in renaturing and developing buffers; casein substrate; complete inhibition, no constant
T2 construct: full-length cDNA (541 residues), C-terminal FLAG kept, expressed in S2 cells, immunoprecipitated from conditioned media; secreted form has lost pro-domain; ~65 kDa in lysate
T2 sequence (Q8MLN6 109-541): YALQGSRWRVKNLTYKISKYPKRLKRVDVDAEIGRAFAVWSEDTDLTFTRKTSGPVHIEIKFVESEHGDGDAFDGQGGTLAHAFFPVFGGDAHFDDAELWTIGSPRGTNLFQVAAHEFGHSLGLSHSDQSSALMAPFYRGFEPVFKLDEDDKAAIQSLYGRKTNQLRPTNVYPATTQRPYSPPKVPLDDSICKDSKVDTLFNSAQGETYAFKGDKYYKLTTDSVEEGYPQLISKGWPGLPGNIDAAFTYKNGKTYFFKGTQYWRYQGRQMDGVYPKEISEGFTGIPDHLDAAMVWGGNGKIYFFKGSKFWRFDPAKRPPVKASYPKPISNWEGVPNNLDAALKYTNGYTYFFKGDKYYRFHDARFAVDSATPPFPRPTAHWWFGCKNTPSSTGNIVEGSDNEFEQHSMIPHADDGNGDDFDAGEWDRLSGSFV

**Q.** What does the source list for CNC(=O)[C@H](Cc1c[nH]c2ccccc12)NC(=O)[C@@H](CC(=O)NO)CC(C)C [GM6001]?
**A.** gelatin zymography of FLAG immunoprecipitate (DmMmp2): GM6001 completely inhibited Mmp1 and Mmp2 catalytic activity on zymograms; casein zymography of FLAG immunoprecipitate (DmMmp1 (Mmp1-PF)): GM6001 completely inhibited Mmp1 and Mmp2 catalytic activity on zymograms
